The text below walks through data of patent publication US20110071225A1, “METHOD FOR OBTAINING A SEQUOYITOL-CONTAINING EXTRACT FROM GENUS NEPHROLEPIS AND USES THEREOF” (GUANGZHOU WELMAN NEW DRUG R&D CO., LTD., priority 2008, published 2011).

The test system of data set [1] is diabetes models. The conditions noted are these: sequoyitol isolated from Taxus chinensis; cited from earlier work.
For data set [2] the following is noted: sequoyitol isolated from Taxus chinensis; cited from earlier work.
Data set [3] can be described thus: Solubility in water. Format: physicochemical. The protocol:
Sequoyitol was dissolved in water and sterilized by filtration. Solutions for injection were prepared according to the operation procedure of solutions for injection. Powder for injection was prepared according to the operation procedure of lyophilized powder for injection.

Data set [4] deals with elevated level of blood glucose induced by alloxan in mice. Briefly: Effect on the elevated level of blood glucose induced by alloxan in mice. The format is in vivo. The conditions noted are these: 75 mg/kg via gavage, 7 days. The protocol:
80 male mice weighed 22˜25 g were used. 20 mice were randomly taken as the blank group. Others were injected intravenously with alloxan via caudal vein at a dose of 65 mg/kg body weight, and then modeled according to established methods. The mice were divided into 3 groups according to their level of blood glucose, in which 2 groups were administered via gavage with 60 mg/kg of the Nephrolepis auriculata extract, 75 mg/kg of phenformin (positive control) respectively for consecutive 7 days, in a volume of 0.1 ml/10 g body weight. The same volume of distilled water was administered to the blank group and the control group. Blood glucose was determined using glucose oxidase method.

The structures appear in SMILES notation.

In the case of `CO[C@H]1[C@H](O)[C@@H](O)[C@@H](O)[C@@H](O)[C@@H]1O` [Sequoyitol, sequoyitol], in data set [1], the Absorption of glucose entry was “inhibits”, the “Breakdown of hepatic glycogen” value is listed as “inhibits” and the “High glycemia in diabetes models” value was “remarkably decreases”. For the same compound, the Toxicity entry in data set [2] is given as “very low toxicity”. Besides, the Solubility in water result in data set [3] is recorded as “well soluble”.
As to `[H]/N=C(/N)N/C(=N/[H])NCCc1ccccc1` [phenformin], the “Decrease of hyperglycemia induced by alloxan vs control group” value in data set [4] turned out to be 152.8 mg/dL.
